From patent US20060074243A1, “Hydroxamic acid and amide compounds and their use as protease inhibitors” (Pharmacia Corporation, priority 2002, published 2006)

Experiments:
Human recombinant MMP-2 = biological target: T1, Human recombinant MMP-2 (Homo sapiens, UniProt P08253); assay: In vitro MMP inhibition analysis (fluorogenic peptide substrate cleavage), Ki; type: biochemical; conditions: Table 2
T1 construct: made in house; host or cells: MMP-2-transfected p2AHT2 cells
T1 sequence (P08253 110-660): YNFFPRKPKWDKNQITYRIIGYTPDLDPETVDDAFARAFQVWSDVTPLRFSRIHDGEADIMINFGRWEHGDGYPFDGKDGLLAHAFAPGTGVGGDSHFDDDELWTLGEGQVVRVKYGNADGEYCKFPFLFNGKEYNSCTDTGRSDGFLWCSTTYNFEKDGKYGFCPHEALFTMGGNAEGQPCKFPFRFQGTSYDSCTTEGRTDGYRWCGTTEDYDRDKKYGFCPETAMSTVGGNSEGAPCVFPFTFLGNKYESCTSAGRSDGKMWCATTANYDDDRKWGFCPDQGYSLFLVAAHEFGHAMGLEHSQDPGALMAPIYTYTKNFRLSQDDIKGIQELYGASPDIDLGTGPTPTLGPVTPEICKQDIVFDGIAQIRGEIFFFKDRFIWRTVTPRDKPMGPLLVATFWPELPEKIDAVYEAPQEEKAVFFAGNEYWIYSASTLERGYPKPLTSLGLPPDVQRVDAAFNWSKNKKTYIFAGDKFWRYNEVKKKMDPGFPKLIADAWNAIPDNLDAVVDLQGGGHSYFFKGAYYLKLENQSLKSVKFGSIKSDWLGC
Procedure, shortened: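 Human recombinant MMP-2 from transfected p2AHT2 cells was activated with APMA or trypsin and incubated 1 h at room temperature with compounds and 4 μM MCA-RPLGL(Dpa)ARER-NH2. Buffer was pH 7.5 Tris/NaCl/CaCl2, and fluorescence was read at ex 330/em 420 nm. Ki was fitted by Morrison's equation without substrate correction.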

Human recombinant MMP-1 = biological target: T2, Human recombinant MMP-1 (Homo sapiens, UniProt P03956); assay: as above; type: biochemical; conditions: Table 2
T2 construct: made in house; host or cells: MMP-1-transfected HT-1080 cells (spent media)
T2 sequence (P03956 100-469): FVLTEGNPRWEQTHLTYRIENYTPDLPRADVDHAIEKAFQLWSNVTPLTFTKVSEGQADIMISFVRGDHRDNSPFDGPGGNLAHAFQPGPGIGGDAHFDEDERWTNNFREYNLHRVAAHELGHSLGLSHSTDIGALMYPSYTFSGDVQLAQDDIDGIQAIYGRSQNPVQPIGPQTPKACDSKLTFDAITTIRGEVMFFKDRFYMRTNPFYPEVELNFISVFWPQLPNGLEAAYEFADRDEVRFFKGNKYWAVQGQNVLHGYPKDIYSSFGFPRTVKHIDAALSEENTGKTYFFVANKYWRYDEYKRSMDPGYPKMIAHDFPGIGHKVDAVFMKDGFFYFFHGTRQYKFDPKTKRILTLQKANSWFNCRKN
Procedure, shortened: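 APMA- or trypsin-activated recombinant human MMP-1 (purified from transfected HT-1080 medium) with 4 μM MCA/Dpa quenched fluorogenic peptide, 1 h at room temperature in Tris/NaCl/CaCl2 buffer pH 7.5; fluorescence ex 330/em 420 nm. Ki from Morrison-equation fit of rates, substrate at or below Km, uncorrected.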

Row | SMILES | Ki (Human recombinant MMP-2) | Ki (Human recombinant MMP-1)
1 | CCCCOc1ccc(-c2ccc(S(=O)(=O)C3(C(=O)NO)CCOCC3)cc2)cc1C(F)(F)F [Example 78] | 55.5 nM | > 10000 nM
2 | CCCCNc1cnc(-c2ccc(S(=O)(=O)C3(C(=O)NO)CCOCC3)cc2)cn1 [Example 83] | 7.44 nM | > 10000 nM
3 | O=C(NO)C1(S(=O)(=O)c2ccc(-c3ccc(F)c(C(F)(F)F)c3)cc2)CCOCC1 [Example 84] | 10.1 nM | > 10000 nM
4 | O=C(NO)C1(S(=O)(=O)c2ccc(-c3ccc(OCC(F)(F)C(F)F)c(C(F)(F)F)c3)cc2)CCOCC1 [Example 85] | 33.4 nM | > 10000 nM
5 | CC(C)CCOc1ccc(-c2ccc(S(=O)(=O)C3(C(=O)NO)CCOCC3)cc2)cc1C(F)(F)F [Example 86] | 85.7 nM | > 10000 nM
6 | O=C(NO)C1(S(=O)(=O)c2ccc(-c3ccc(OCC(F)(F)C(F)(F)F)c(C(F)(F)F)c3)cc2)CCOCC1 [Example 90] | 28.3 nM | > 10000 nM
7 | CCC(C)COc1ccc(-c2ccc(S(=O)(=O)C3(C(=O)NO)CCOCC3)cc2)cc1C(F)(F)F (centres unmarked) [Example 92] | 58.1 nM | > 10000 nM
8 | CCNc1cnc(-c2ccc(S(=O)(=O)C3(C(=O)NO)CCOCC3)cc2)cn1 [Example 93] | 4.16 nM | > 10000 nM
9 | O=C(NO)C1(S(=O)(=O)c2ccc(-c3cnc(-n4cccc4)cn3)cc2)CCOCC1 [Example 94] | 1.09 nM | > 10000 nM
10 | O=C(NO)C1(S(=O)(=O)c2ccc(-c3ccc(C(F)(F)F)cc3F)cc2)CCOCC1 [Example 96] | 0.668 nM | 602 nM
11 | CC(C)c1ccc(-c2ccc(S(=O)(=O)C3(C(=O)NO)CCOCC3)cc2)cc1 [Example 97] | 1.14 nM | 1040 nM
12 | COC/C(Cl)=C/c1cnc(-c2ccc(S(=O)(=O)C3(C(=O)NO)CCOCC3)cc2)cn1 [Example 165] | 2.46 nM | 8950 nM
13 | O=C(NO)C1(S(=O)(=O)c2ccc(-c3ccc(CCC(F)(F)C(F)(F)F)cc3)cc2)CCS(=O)(=O)CC1 [Example 167] | 1.9 nM | > 10000 nM
14 | CC(C)CCc1cnc(-c2ccc(S(=O)(=O)C3(C(=O)NO)CCOCC3)cc2)cn1 [Example 169] | 1.09 nM | > 10000 nM
15 | CC(C)N(C(=O)N1CCC(C(=O)NO)(S(=O)(=O)c2ccc(-c3ccc(CCC(F)(F)C(F)(F)F)cc3)cc2)CC1)C(C)C [Example 174] | 1.24 nM | > 10000 nM
16 | COCCC(C(=O)NO)S(=O)(=O)c1ccc(-c2ccc(CCC(F)(F)C(F)(F)F)cc2)cc1 (centres unmarked) [Example 177] | 1.57 nM | > 10000 nM
17 | COc1ccc(C(=O)c2cnc(-c3ccc(S(=O)(=O)C4(C(=O)NO)CCOCC4)cc3)cn2)cc1 [Example 179] | 2.99 nM | > 10000 nM
18 | COc1ccc(Cc2cnc(-c3ccc(S(=O)(=O)C4(C(=O)NO)CCOCC4)cc3)cn2)cc1 [Example 182] | 114 nM | > 10000 nM
19 | CCCCNC(=O)c1cnc(-c2ccc(S(=O)(=O)C3(C(=O)NO)CCOCC3)cc2)cn1 [Example 184] | 0.8 nM | 533 nM
20 | CC(C)CCNC(=O)c1cnc(-c2ccc(S(=O)(=O)C3(C(=O)NO)CCOCC3)cc2)cn1 [Example 185] | 0.91 nM | 501 nM
21 | CC(C)CNC(=O)c1cnc(-c2ccc(S(=O)(=O)C3(C(=O)NO)CCOCC3)cc2)cn1 [Example 186] | 2.33 nM | 1100 nM
22 | O=C(NCC1CCCCC1)c1cnc(-c2ccc(S(=O)(=O)C3(C(=O)NO)CCOCC3)cc2)cn1 [Example 190] | 1.7 nM | 1310 nM
23 | O=C(NCC1CC1)c1cnc(-c2ccc(S(=O)(=O)C3(C(=O)NO)CCOCC3)cc2)cn1 [Example 191] | 0.75 nM | 200 nM
24 | O=C(NCC(F)(F)C(F)(F)F)c1cnc(-c2ccc(S(=O)(=O)C3(C(=O)NO)CCOCC3)cc2)cn1 [Example 192] | 0.89 nM | 1540 nM
25 | O=C(NO)C1(S(=O)(=O)c2ccc(-c3nc4ccccc4o3)cc2)CCOCC1 [Example 193] | 1.34 nM | 1490 nM
26 | O=C(NO)C1(S(=O)(=O)c2ccc(-c3cnc4ccccc4n3)cc2)CCOCC1 [Example 194] | 176 nM | > 10000 nM
27 | O=C(NO)C1(S(=O)(=O)c2ccc(-c3nc4ccccc4s3)cc2)CCOCC1 [Example 195] | 5.74 nM | > 10000 nM

The next compounds have a lower Ki (Human recombinant MMP-2) than those just listed; values first:

Row | Ki (Human recombinant MMP-2) | Ki (Human recombinant MMP-1) | SMILES
28 | 0.177 nM | 969 nM | COCCOc1ccc(-c2ccc(S(=O)(=O)C3(C(=O)NO)CCOCC3)cc2)cc1 [Example 70]
29 | 0.18 nM | 1290 nM | CCCCOc1ccc(-c2ccc(S(=O)(=O)C3(C(=O)NO)CCOCC3)cc2)cc1 [Example 77]
30 | 0.184 nM | 471 nM | CCc1ccc(-c2ccc(S(=O)(=O)C3(C(=O)NO)CCOCC3)cc2)cc1 [Example 79]
31 | 0.098 nM | 577 nM | O=C(NO)C1(S(=O)(=O)c2ccc(-c3ccc(OC(F)(F)F)cc3)cc2)CCOCC1 [Example 80]
32 | 0.106 nM | 354 nM | Cc1ccc(-c2ccc(S(=O)(=O)C3(C(=O)NO)CCOCC3)cc2)nc1 [Example 81]
33 | 0.2 nM | 256 nM | O=C(NO)C1(S(=O)(=O)c2ccc(-c3ccc(C(F)(F)F)cn3)cc2)CCOCC1 [Example 82]
34 | 0.158 nM | 1110 nM | CCCc1ccc(-c2ccc(S(=O)(=O)C3(C(=O)NO)CCOCC3)cc2)cc1 [Example 87]
35 | 0.15 nM | 3520 nM | O=C(NO)C1(S(=O)(=O)c2ccc(-c3cnc(OCCCC(F)(F)F)cn3)cc2)CCOCC1 [Example 88]
36 | 0.0488 nM | 2260 nM | CCCCc1ccc(-c2ccc(S(=O)(=O)C3(C(=O)NO)CCOCC3)cc2)nc1 [Example 89]
37 | 0.374 nM | 3900 nM | CCCCc1ccc(-c2ccc(S(=O)(=O)C3(C(=O)NO)CCOCC3)cc2)cc1 [Example 91]
38 | 0.17 nM | 1020 nM | O=C(NO)C1(S(=O)(=O)c2ccc(-c3ccc(OCC(F)(F)C(F)(F)F)cc3)cc2)CCOCC1 [Example 95]
39 | 0.4 nM | 1660 nM | CC(C)CC#Cc1cnc(-c2ccc(S(=O)(=O)C3(C(=O)NO)CCOCC3)cc2)cn1 [Example 166]
40 | 0.08 nM | 1920 nM | O=C(NO)C1(S(=O)(=O)c2ccc(-c3cnc(OCC4CC4)cn3)cc2)CCOCC1 [Example 168]
41 | 0.09 nM | 693 nM | CC(C)COc1cnc(-c2ccc(S(=O)(=O)C3(C(=O)NO)CCOCC3)cc2)cn1 [Example 170]
42 | 0.24 nM | 6370 nM | O=C(N1CCOCC1)N1CCC(C(=O)NO)(S(=O)(=O)c2ccc(-c3ccc(CCC(F)(F)C(F)(F)F)cc3)cc2)CC1 [Example 171]
43 | 0.07 nM | 1360 nM | O=C(NO)C1(S(=O)(=O)c2ccc(-c3cnc(OCCC4CC4)cn3)cc2)CCOCC1 [Example 172]
44 | 0.35 nM | 4610 nM | CN(C)C(=O)N1CCC(C(=O)NO)(S(=O)(=O)c2ccc(-c3ccc(CCC(F)(F)C(F)(F)F)cc3)cc2)CC1 [Example 173]
45 | 0.42 nM | > 10000 nM | O=C(N1CCCCC1)N1CCC(C(=O)NO)(S(=O)(=O)c2ccc(-c3ccc(CCC(F)(F)C(F)(F)F)cc3)cc2)CC1 [Example 175]
46 | 0.04 nM | 1200 nM | O=C(NO)C1(S(=O)(=O)c2ccc(-c3ccc(CCC(F)(F)F)cn3)cc2)CCOCC1 [Example 176]
47 | 0.1 nM | 1100 nM | O=C(NO)C1(S(=O)(=O)c2ccc(-c3cnc(OCC4CCC4)cn3)cc2)CCOCC1 [Example 178]
48 | 0.295 nM | > 10000 nM | O=C(NO)C1(S(=O)(=O)c2ccc(-c3cnc(OCCC4CCCC4)cn3)cc2)CCOCC1 [Example 180]
49 | 0.272 nM | 465 nM | COC(=O)c1ccc2cc(-c3ccc(S(=O)(=O)C4(C(=O)NO)CCOCC4)cc3)ccc2c1 [Example 181]
50 | 0.35 nM | > 10000 nM | CO[C@H]1CC[C@](C(=O)NO)(S(=O)(=O)c2ccc(-c3cnc(CCC(F)(F)C(F)(F)F)cn3)cc2)CC1 [Example 183]
51 | 0.32 nM | 7020 nM | COCCO[C@H]1CC[C@](C(=O)NO)(S(=O)(=O)c2ccc(-c3cnc(CCC(F)(F)C(F)(F)F)cn3)cc2)CC1 [Example 187]
52 | 0.13 nM | 81.2 nM | O=C(NO)C1(S(=O)(=O)c2ccc(-c3ccc4c(c3)OCO4)cc2)CCOCC1 [Example 188]
